Columns and labels:
[1] = system: S. aureus 209PJC; assay: Antibacterial activity test (MIC); assay type: cell-based; conditions: Mueller-Hinton Broth, 37° C., 20 to 24 hours
Procedure, shortened: (§1)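 Broth dilution MIC per the Japanese Society of Chemotherapy standard method in Mueller-Hinton Broth. Strains were grown statically at 37° C for 16 to 20 hours and diluted in sterile saline to 10^5/ml. Compounds were dissolved in methanol and serially diluted twofold in medium, giving 100 μg/ml and 2^n-fold (n=−10 to 1).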

[2] = system: P. aeruginosa PAO-1; assay: Antibacterial activity test (MIC); assay type: cell-based; conditions: Mueller-Hinton Broth, 37° C., 20 to 24 hours
Procedure, shortened: as §1

[3] = system: E. coli NIHJ JC-2; assay: Antibacterial activity test (MIC); assay type: cell-based; conditions: Mueller-Hinton Broth, 37° C., 20 to 24 hours
Procedure, shortened: as §1

[4] = system: MRSA 97-115; assay: Antibacterial activity test (MIC); assay type: cell-based, methicillin-resistant Staphylococcus aureus; conditions: Mueller-Hinton Broth, 37° C., 20 to 24 hours
Procedure, shortened: as §1

[5] = system: S. aureus 209PJC; assay: Bactericidal activity test (MBC, phenol coefficient measuring method); assay type: cell-based
Protocol: (§2) As a test bacterium, the same bacteria species as those of the antibacterial activity test were used; as a medium to be used, a SCD medium (manufactured by Eiken Chemical Co., Ltd.) was used for pre-culture medium; and a heart infusion bouillon medium (manufactured by Eiken Chemical Co., Ltd.) was used as a medium for growing a live bacterium in a test solution after bactericidal treatment. One platinum loop of a test bacterium was inoculated into 20 ml of a medium, and static culture was carried out at 37° C. for 18 to 20 hours, and the cells were adjusted with a sterilized physiological saline to 1×10^7/ml, which was used as a test bacterium solution.
(§3) Then, a solution of each compound in methanol was subjected to ½ stepwise dilution with sterilized water, each 5 ml was dispensed into a test tube, 0.5 ml of the previously prepared test bacterium solution was added thereto, and the mixture was blended well. After 1 minute, 3 minutes and 5 minutes has passed, 5 μl of the test solution was collected and inoculated into 2 ml of a heart infusion bouillon medium, this was cultured at 37° C. for 40 to 48 hours, and the presence or absence of growth of a bacterium was determined. A test was performed three times, a minimum concentration at which growth of a bacterium was not recognized two or more times was adopted as a minimal bactericidal concentration (MBC value).
(§4) Numerical values in Tables represent MBC expressed in μg/ml unit.

[6] = system: P. aeruginosa PAO-1; assay: as above; assay type: cell-based
Protocol: as §2, §3, §4

[7] = system: E. coli NIHJ JC-2; assay: as above; assay type: cell-based
Protocol: as §2, §3, §4

[8] = system: MRSA 97-115; assay: as above; assay type: cell-based, methicillin-resistant Staphylococcus aureus
Protocol: as §2, §3, §4

| Structure (SMILES) | minimal inhibitory concentration (MIC) [1] [µg/mL] | minimal inhibitory concentration (MIC) [2] [µg/mL] | minimal inhibitory concentration (MIC) [3] [µg/mL] | minimal inhibitory concentration (MIC) [4] [µg/mL] | minimal bactericidal concentration (MBC) ([5]; 1 min) [µg/mL] | minimal bactericidal concentration (MBC) ([5]; 3 min) [µg/mL] | minimal bactericidal concentration (MBC) ([5]; 5 min) [µg/mL] | minimal bactericidal concentration (MBC) ([6]; 1 min) [µg/mL] | minimal bactericidal concentration (MBC) ([6]; 3 min) [µg/mL] | minimal bactericidal concentration (MBC) ([6]; 5 min) [µg/mL] | minimal bactericidal concentration (MBC) ([7]; 1 min) [µg/mL] | minimal bactericidal concentration (MBC) ([7]; 3 min) [µg/mL] | minimal bactericidal concentration (MBC) ([7]; 5 min) [µg/mL] | minimal bactericidal concentration (MBC) ([8]; 1 min) [µg/mL] | minimal bactericidal concentration (MBC) ([8]; 3 min) [µg/mL] | minimal bactericidal concentration (MBC) ([8]; 5 min) [µg/mL] |
| --- | --- | --- | --- | --- | --- | --- | --- | --- | --- | --- | --- | --- | --- | --- | --- | --- |
| CC(=O)O.CCCCCCCCNC1=NC(C)(C)N=C(NCC2CCCCC2)N1 [compound 65] | 0.8 | 50 | 25 | 0.8 | 12.5 | 3.1 | 3.1 | 3.1 | 1.6 | 1.6 | 3.1 | 1.6 | 1.6 | 25 | 12.5 | 12.5 |
| CC(=O)O.CCCCCCCNC1=NC(C)(C)N=C(NCCCCCCC)N1 [compound 69] | 0.8 | 50 | 12.5 | 0.8 | 6.3 | 6.3 | 3.1 | 3.1 | 1.6 | 1.6 | 6.3 | 3.1 | 3.1 | 25 | 25 | 12.5 |
| CCCCCCCCCCCCCCNC1=NC(C)(C)N=C(N)N1.Cl [compound 72] | 0.8 | 25 | 25 | 1.6 | 3.1 | 1.6 | 1.6 | 3.1 | 1.6 | 1.6 | 6.3 | 3.1 | 3.1 | 25 | 12.5 | 12.5 |
| CC(=O)O.CCCCCCCCNC1=NC(C)(C)N=C(Nc2cnc3ccccc3c2)N1 [compound 82] | 0.8 | 50 | 25 | 1.6 | 12.5 | 6.3 | 6.3 | 12.5 | 12.5 | 6.3 | 6.3 | 6.3 | 3.1 | 50 | 25 | 25 |

Source: patent US7622469B2, “2,4-diamino-1,3,5-triazine derivatives” (Hamari Chemicals, Ltd., priority 2002, dated 2009)
